From patent US12485157B2, “Method of treating COVID-19” (Pfizer Inc., priority 2020, dated 2025)

Target: SARS-CoV-2 3CL protease (Severe acute respiratory syndrome coronavirus 2 (2019-nCoV) (SARS-CoV-2), UniProt P0DTD1)
Assay: SARS-CoV-2 Coronavirus 3C Protease FRET Assay
Assay type: biochemical
Conditions: for Ki: read-out: 3CL Protease Geometric Mean Ki

Row | Structure (SMILES) | Ki [nM] | inhibition of SARS-CoV-2 3CLpro (fluorescent signal reduced) (FRET assay control inhibitor)
1 | COc1cccc2[nH]c(C(=O)N[C@@H](CC(C)C)C(=O)N[C@@H](C[C@@H]3CCNC3=O)C(=O)COC(C)=O)cc12 [Example 1, (3S)-3-({N-[(4-methoxy-1H-indol-2-yl)carbonyl]-L-leucyl}amino)-2-oxo-4-[(3S)-2-oxopyrrolidin-3-yl]butyl acetate] | 19.4 | –
2 | COc1cccc2[nH]c(C(=O)N[C@@H](CC(C)C)C(=O)N[C@@H](C[C@@H]3CCNC3=O)C(=O)COC(=O)C(C)(C)C)cc12 [Example 2, (3S)-3-({N-[(4-methoxy-1H-indol-2-yl)carbonyl]-L-leucyl}amino)-2-oxo-4-[(3S)-2-oxopyrrolidin-3-yl]butyl pivalate] | 94.1 | –
3 | COc1cccc2[nH]c(C(=O)N[C@@H](CC(C)C)C(=O)N[C@@H](C[C@@H]3CCNC3=O)C(=O)COC(=O)c3ccccc3)cc12 [Example 3, (3S)-3-({N-[(4-methoxy-1H-indol-2-yl)carbonyl]-L-leucyl}amino)-2-oxo-4-[(3S)-2-oxopyrrolidin-3-yl]butyl benzoate] | 233 | –
4 | COc1cccc2[nH]c(C(=O)N[C@@H](CC(C)C)C(=O)N[C@@H](C[C@@H]3CCNC3=O)C(=O)COC(=O)c3ccc(C)cc3)cc12 [Example 4, (3S)-3-({N-[(4-methoxy-1H-indol-2-yl)carbonyl]-L-leucyl}amino)-2-oxo-4-[(3S)-2-oxopyrrolidin-3-yl]butyl 4-methylbenzoate] | 17.7 | –
5 | COc1cccc2[nH]c(C(=O)N[C@@H](CC(C)C)C(=O)N[C@@H](C[C@@H]3CCNC3=O)C(=O)COC(=O)c3ccc(F)cc3)cc12 [Example 5, (3S)-3-({N-[(4-methoxy-1H-indol-2-yl)carbonyl]-L-leucyl}amino)-2-oxo-4-[(3S)-2-oxopyrrolidin-3-yl]butyl 4-fluorobenzoate] | 16.3 | –
6 | COc1cccc2[nH]c(C(=O)N[C@@H](CC(C)C)C(=O)N[C@@H](C[C@@H]3CCNC3=O)C(=O)COC(=O)c3ccc(C#N)cc3)cc12 [Example 6, (3S)-3-({N-[(4-methoxy-1H-indol-2-yl)carbonyl]-L-leucyl}amino)-2-oxo-4-[(3S)-2-oxopyrrolidin-3-yl]butyl 4-cyanobenzoate] | 1.9 | –
7 | COc1ccc(C(=O)OCC(=O)[C@H](C[C@@H]2CCNC2=O)NC(=O)[C@H](CC(C)C)NC(=O)c2cc3c(OC)cccc3[nH]2)cc1 [Example 7, (3S)-3-({N-[(4-methoxy-1H-indol-2-yl)carbonyl]-L-leucyl}amino)-2-oxo-4-[(3S)-2-oxopyrrolidin-3-yl]butyl 4-methoxybenzoate] | 33.4 | –
8 | COc1cccc2[nH]c(C(=O)N[C@@H](CC(C)C)C(=O)N[C@@H](C[C@@H]3CCNC3=O)C(=O)COC(=O)c3ccc(Cl)cc3)cc12 [Example 8, (3S)-3-({N-[(4-methoxy-1H-indol-2-yl)carbonyl]-L-leucyl}amino)-2-oxo-4-[(3S)-2-oxopyrrolidin-3-yl]butyl 4-chlorobenzoate] | 18.8 | –
9 | COc1cccc2[nH]c(C(=O)N[C@@H](CC(C)C)C(=O)N[C@@H](C[C@@H]3CCNC3=O)C(=O)COC(=O)c3c(Cl)cccc3Cl)cc12 [Example 9, (3S)-3-({N-[(4-methoxy-1H-indol-2-yl)carbonyl]-L-leucyl}amino)-2-oxo-4-[(3S)-2-oxopyrrolidin-3-yl]butyl 2,6-dichlorobenzoate] | 0.3 | –
10 | COc1cccc2[nH]c(C(=O)N[C@@H](CC(C)C)C(=O)N[C@@H](C[C@@H]3CCNC3=O)C(=O)COC(=O)c3c(C)cccc3C)cc12 [Example 10, (3S)-3-({N-[(4-methoxy-1H-indol-2-yl)carbonyl]-L-leucyl}amino)-2-oxo-4-[(3S)-2-oxopyrrolidin-3-yl]butyl 2,6-dimethylbenzoate] | 3.4 | –
11 | COc1cccc2[nH]c(C(=O)N[C@@H](CC(C)C)C(=O)N[C@@H](C[C@@H]3CCNC3=O)C(=O)COC(=O)c3c(F)cccc3F)cc12 [Example 11, (3S)-3-({N-[(4-methoxy-1H-Indol-2-yl)carbonyl]-L-leucyl}amino)-2-oxo-4-[(3S)-2-oxopyrrolidin-3-yl]butyl 2,6-difluorobenzoate] | 1.3 | –
12 | COc1cccc(OC)c1C(=O)OCC(=O)[C@H](C[C@@H]1CCNC1=O)NC(=O)[C@H](CC(C)C)NC(=O)c1cc2c(OC)cccc2[nH]1 [Example 12, (3S)-3-({N-[(4-methoxy-1H-indol-2-yl)carbonyl]-L-leucyl}amino)-2-oxo-4-[(3S)-2-oxopyrrolidin-3-yl]butyl 2,6-dimethoxybenzoate] | 15.7 | –
13 | COc1cccc2[nH]c(C(=O)N[C@@H](CC(C)C)C(=O)N[C@@H](C[C@@H]3CCNC3=O)C(=O)COC(=O)c3ccc(C#N)cc3F)cc12 [Example 14, (3S)-3-({N-[(4-methoxy-1H-indol-2-yl)carbonyl]-L-leucyl}amino)-2-oxo-4-[(3S)-2-oxopyrrolidin-3-yl]butyl 4-cyano-2-fluorobenzoate] | 0.2 | –
14 | COc1cccc2[nH]c(C(=O)N[C@@H](CC(C)C)C(=O)N[C@@H](C[C@@H]3CCNC3=O)C(=O)COC(=O)c3ccccc3C#N)cc12 [Example 15, (3S)-3-({N-[(4-methoxy-1H-indol-2-yl)carbonyl]-L-leucyl}amino)-2-oxo-4-[(3S)-2-oxopyrrolidin-3-yl]butyl 2-cyanobenzoate] | 0.4 | –
15 | COc1cccc2[nH]c(C(=O)N[C@@H](CC(C)C)C(=O)N[C@@H](C[C@@H]3CCNC3=O)C(=O)CO)cc12 [PF-835231, reference compound] | – | potent inhibitor
